Legend:
[1] = target: Potassium voltage-gated channel subfamily A member 3 (Homo sapiens, UniProt P22001); assay: Inhibition of Kv1.3 expressed in mouse L929 cells exposed to depolarizing step pulses from -80 mV to +40 mV by whole cell patch clamp method; assay type: cell-based
[2] = Lipophilicity, logP of the compound; assay type: physicochemical; conditions: octanol/water

Sequence of Potassium voltage-gated channel subfamily A member 3 (P22001 whole entry): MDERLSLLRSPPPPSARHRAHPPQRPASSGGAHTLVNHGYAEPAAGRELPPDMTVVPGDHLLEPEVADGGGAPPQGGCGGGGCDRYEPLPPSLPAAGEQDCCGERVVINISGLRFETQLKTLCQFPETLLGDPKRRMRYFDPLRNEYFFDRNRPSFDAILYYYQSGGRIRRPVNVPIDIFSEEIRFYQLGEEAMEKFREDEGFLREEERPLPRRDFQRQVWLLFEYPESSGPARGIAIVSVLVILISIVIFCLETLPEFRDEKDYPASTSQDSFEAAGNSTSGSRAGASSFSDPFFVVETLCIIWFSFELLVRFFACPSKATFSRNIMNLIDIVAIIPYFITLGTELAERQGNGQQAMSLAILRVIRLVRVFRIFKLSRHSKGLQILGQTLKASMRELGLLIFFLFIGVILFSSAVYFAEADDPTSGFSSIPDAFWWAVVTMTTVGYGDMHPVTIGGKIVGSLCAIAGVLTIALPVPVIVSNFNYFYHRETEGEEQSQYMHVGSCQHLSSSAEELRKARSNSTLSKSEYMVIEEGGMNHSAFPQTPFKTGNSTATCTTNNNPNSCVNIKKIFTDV

| Compound | IC50 [1] | logP [2] |
| --- | --- | --- |
| N#CC(CCN1CCN(Cc2ccccc2)CC1)(c1ccccc1)c1ccccc1 | 1.27 µM | – |
| O=c1ccc2c(OCCCCOc3ccccc3)c3ccoc3cc2o1 | – | 4.03 |
| CCOC(=O)C1(c2ccccc2)CCN(CCCc2ccccc2)CC1 | 0.8 µM | – |
| COC1CCN(CCC(C#N)(c2ccccc2)c2ccccc2)CC1 | > 100 µM | – |
| N#CC(CCN1CCN(c2ccccc2)CC1)(c1ccccc1)c1ccccc1 | 1.86 µM | – |
| N#CC(CCN1CCCC(O)C1)(c1ccccc1)c1ccccc1 (stereo not given) | > 100 µM | – |
| N#CC(CCN1CCC(c2ccccc2)CC1)(c1ccccc1)c1ccccc1 | 2.61 µM | – |
| OC1CCN(CCCc2ccccc2)CC1 | > 100 µM | – |
| CC1CCN(CCC(C#N)(c2ccccc2)c2ccccc2)CC1 | 5.8 µM | – |
| COC(=O)C1(c2ccccc2)CCN(CCC(C#N)(c2ccccc2)c2ccccc2)CC1 | 2.52 µM | – |
| N#CC(CCN1CCCCC1)(c1ccccc1)c1ccccc1 | 20.5 µM | – |
| CCOC(=O)C1(c2ccccc2)CCN(CCC(C#N)(c2ccccc2)c2ccccc2)CC1 [DIPHENOXYLATE] | 5 µM | – |
| N#CC(CCN1CCC(O)(c2ccccc2)CC1)(c1ccccc1)c1ccccc1 | 1.7 µM | – |
| N#CC(CCN1CCC(N)CC1)(c1ccccc1)c1ccccc1 | > 100 µM | – |
| CCOC(=O)C1(c2ccccc2)CCN(CCC(c2ccccc2)c2ccccc2)CC1 | 0.9 µM | – |
| CC(C)(C)OC(=O)NC1CCN(CCC(C#N)(c2ccccc2)c2ccccc2)CC1 | 25 µM | – |
| N#CC(CCN1CC=C(c2ccccc2)CC1)(c1ccccc1)c1ccccc1 | 4.2 µM | – |
| CCOC(=O)C1CCN(CCC(C#N)(c2ccccc2)c2ccccc2)CC1 | 230 µM | – |
| OC1CCN(CCC(c2ccccc2)c2ccccc2)CC1 | 75 µM | – |
| N#CC(CCN1CCC(O)CC1)(c1ccccc1)c1ccccc1 | 0.75 µM | – |
